Measured values reported in patent US20030171377A1, “Antidiabetic agents” (priority 2001, published 2003).

tested on: promoter/enhancer of the murine aP2 gene (PPAR-γ ligands); experiment: 3T3-L1 Transient Reporter Assay (AD3T3-L1 Reporter), Test E; conditions: Mus musculus, 3T3-L1, read-out: AD3T3-L1 Reporter EC50(nM)

| EC50 | Compound |
| --- | --- |
| 9700 nM | Cc1oc(-c2ccccc2)nc1CCCc1ccc(CC(C(=O)O)n2cncn2)cc1 (stereo not drawn) [Example 0336683] |

same assay, conditions: maximal response relative to rosiglitazone

| Compound | AD3T3-L1 Reporter Max. % Rosi |
| --- | --- |
| Cc1oc(-c2ccccc2)nc1CCCc1ccc(CC(C(=O)O)n2cccn2)cc1 (racemic) [Example 0339165, 3-{4-[3-(5-Methyl-2-phenyl-oxazol-4-yl)-propyl]-phenyl}-2-pyrazol-1-yl-propionic acid] | 90 % Rosi |
| Cc1oc(-c2ccccc2)nc1CCCc1ccc(CC(C(=O)O)n2cncn2)cc1 (stereo not drawn) [Example 0336683] | 62.8 % Rosi |
| Cc1oc(-c2ccccc2)nc1CCCc1ccc(CC(C(=O)O)n2ccnn2)cc1 (stereo not drawn) [Example 0338227] | 59 % Rosi |

target: T1, PPAR alpha (Homo sapiens, UniProt Q07869); experiment: HepG2-hALPHA assay (PPAR alpha); format: cell-based; conditions: HepG2 cells
T1 construct: expressed in transfected cells; host or cells: HepG2
T1 sequence (Q07869 1-468): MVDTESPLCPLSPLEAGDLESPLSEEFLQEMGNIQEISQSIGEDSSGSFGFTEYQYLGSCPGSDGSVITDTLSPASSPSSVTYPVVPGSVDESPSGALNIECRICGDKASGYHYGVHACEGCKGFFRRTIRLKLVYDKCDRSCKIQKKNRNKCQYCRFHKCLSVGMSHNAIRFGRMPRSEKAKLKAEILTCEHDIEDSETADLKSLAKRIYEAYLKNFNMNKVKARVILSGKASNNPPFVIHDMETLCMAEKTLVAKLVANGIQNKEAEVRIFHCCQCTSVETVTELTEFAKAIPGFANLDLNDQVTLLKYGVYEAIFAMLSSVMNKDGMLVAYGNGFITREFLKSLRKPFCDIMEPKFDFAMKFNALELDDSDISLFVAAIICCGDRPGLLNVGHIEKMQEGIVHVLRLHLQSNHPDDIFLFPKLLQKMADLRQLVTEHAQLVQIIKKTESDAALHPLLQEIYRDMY

| HepG2-hAlpha Max. Res. % GW9578 | HepG2-hAlpha concentration of Max. Res. (uM, in brackets) | Compound |
| --- | --- | --- |
| 100.0 % GW9578 | 1 µM | CCCCCCCN(CCc1ccc(SC(C)(C)C(=O)O)cc1)C(=O)Nc1ccc(F)cc1F [GW9578] |

tested on: not given; experiment: not given; conditions: not given

| Compound | melting point |
| --- | --- |
| O=C(O)[C@H](Cc1ccc(OCCn2c(-c3ccccc3)nc3ccccc32)cc1)n1cccc1 (stereo in doubt) [Example 23, 3-{4-[2-(2-Phenyl-benzimidazol-1-yl)-ethoxy]-phenyl}-2-pyrrol-1-yl-propionic acid] | 210 to 212 °C |
| Cc1oc(-c2ccccc2)nc1CCC(=O)c1ccc(C[C@@H](C(=O)O)n2cccc2)cc1 (stereo in doubt) [Example 31, 3-{4-[3-(5-Methyl-2-phenyl-oxazol-4-yl)-propionyl]-phenyl}-2-pyrrol-1-yl-propionic acid] | 90 to 92 °C |
| Cc1oc(-c2ccccc2)nc1CCOc1ccc(C[C@@H](C(=O)O)n2ccc(-c3ccccc3)c2)cc1 [Example 4, (S)-3-{4-[2-(5-Methyl-2-phenyl-oxazol-4-yl)-ethoxy]-phenyl}-2-(3-phenyl-pyrrol-1-yl)-propionic acid] | 146 to 147 °C |
| Cc1oc(-c2ccccc2)nc1CCOc1ccc(C[C@@H](C(=O)O)n2cccc2C(=O)C(F)(F)F)cc1 [Example 12, (S)-3-{4-[2-(5-Methyl-2-phenyl-oxazol-4-yl)-ethoxy]-phenyl}-2-[2-(2,2,2-trifluoro-acetyl)-pyrrol-1-yl]-propionic acid] | 187 to 188 °C |
| Cc1sc(-c2ccccc2)nc1CCOc1ccc(C[C@@H](C(=O)O)n2cccc2)cc1 [Example 18, (S)-3-{4-[2-(5-Methyl-2-phenyl-thiazol-4-yl)-ethoxy]-phenyl}-2-pyrrol-1-yl-propionic acid] | 157 to 158 °C |
| COc1ccc(C(Cc2ccc(OCCc3nc(-c4ccccc4)oc3C)cc2)C(=O)O)cc1 (stereo not drawn) [Example 37, 2-(4-Methoxy-phenyl)-3-{4-[2-(5-methyl-2-phenyl-oxazol-4-yl)-ethoxy]-phenyl}-propionic acid] | 114.7 to 116.6 °C |
| Cc1oc(-c2ccccc2)nc1CCOc1ccc(CC(F)(C(=O)O)c2ccccc2)cc1 (stereo not drawn) [Example 41, 2-Fluoro-3-{4-[2-(5-methyl-2-phenyl-oxazol-4-yl)-ethoxy]-phenyl}-2-phenyl-propionic acid] | 163 to 165 °C |
| CCc1nnc(C(Cc2ccc(OCCc3nc(-c4ccccc4)oc3C)cc2)c2ccccc2)o1 (stereo not drawn) [Example 43, 2-Ethyl-5-(2-{4-[2-(5-methyl-2-phenyl-oxazol-4-yl)-ethoxy]-phenyl}-1-phenyl-ethyl)-1,3,4-oxadiazole] | 110 °C |
| Cc1oc(-c2ccccc2)nc1CCC(=O)c1ccc(CC(C(=O)O)n2cccc2)cc1 (stereo not drawn) [Example 44, 3-{4-[3-(5-Methyl-2-phenyl-oxazol-4-yl)-propionyl]-phenyl}-2-pyrrol-1-yl-propionic acid] | 90 to 92 °C |
| Cc1oc(-c2ccccc2)nc1CCOc1ccc(CC(C)(C)C(=O)NS(C)(=O)=O)cc1 [Example 75, N-(2,2-Dimethyl-3-{4-[2-(5-methyl-2-phenyl-oxazol-4-yl)-ethoxy]-phenyl}-propionyl)-methanesulfonamide] | 112 to 113 °C |
| Cc1oc(-c2ccccc2)nc1CCOc1ccc(CC(F)(C(=O)NS(C)(=O)=O)c2ccccc2)cc1 (stereo not drawn) [Example 76, N-(2-Fluoro-3-{4-[2-(5-methyl-2-phenyl-oxazol-4-yl)-ethoxy]-phenyl}-2-phenyl-propionyl)-methanesulfonamide] | 118 to 120 °C |
| Cc1oc(-c2ccccc2)nc1CCOc1ccc(CC(C(=O)O)c2nc(-c3ccccc3)oc2C)cc1 (stereo not drawn) [Example 79, 2-(5-Methyl-2-phenyl-oxazol-4-yl)-3-{4-[2-(5-methyl-2-phenyl-oxazol-4-yl)-ethoxy]-phenyl}-propionic acid] | 120 °C |
| Cc1oc(-c2ccccc2)nc1CCCc1ccc(CC(C(=O)O)n2cncn2)cc1 (stereo not drawn) [Example 94] | 169 to 171 °C |
| Cc1cc(C(Cc2ccc(CCCc3nc(-c4ccccc4)oc3C)cc2)C(=O)O)on1 (stereo not drawn) [Example 104, 2-(3-Methyl-isoxazol-5-yl)-3-{4-[3-(5-methyl-2-phenyl-oxazol-4-yl)-propyl]-phenyl}-propionic acid] | 133 to 135 °C |
| CC(=O)N(CCc1nc(-c2ccccc2)oc1C)Cc1ccc(C[C@@H](C(=O)O)n2cccc2)cc1 [Example 111, (S)-3-[4-({Acetyl-[2-(5-methyl-2-phenyl-oxazol-4-yl)-ethyl]-amino}-methyl)-phenyl]-2-pyrrol-1-yl-propionic acid] | 82 to 87 °C |
| O=C(O)[C@H](Cc1ccc(C#CCN2CCC(c3ccccc3)CC2)cc1)n1cccc1 [Example 121c, (S)-3-{4-[3-(4-Phenyl-piperidin-1-yl)-prop-1-ynyl]-phenyl}-2-pyrrol-1-yl-propionic acid] | 201 to 203 °C |
| O=C(O)[C@H](Cc1ccc(/C=C/CN2CCC(c3ccccc3)CC2)cc1)n1cccc1 [Example 129d, (S)-3-{4-[(E)-3-(4-Phenyl-piperidin-1-yl)-propenyl]-phenyl}-2-pyrrol-1-yl-propionic acid] | 126 to 130 °C |
| O=C(O)[C@H](Cc1ccc(CCCN2CCC(c3ccccc3)CC2)cc1)n1cccc1 [Example 131c, (S)-3-{4-[3-(4-Phenyl-piperidin-1-yl)-propyl]-phenyl}-2-pyrrol-1-yl-propionic acid] | 95 to 100 °C |
| Cc1oc(-c2ccccc2)nc1CCOc1ccc(CC(C(=O)O)(n2cccc2)C(F)(F)F)cc1 (stereo not drawn) [Example 159, 3,3,3-Trifluoro-2-{4-[2-(5-methyl-2-phenyl-oxazol-4-yl)-ethoxy]-benzyl}-2-pyrrol-1-yl-propionic acid] | 201 to 203 °C |

Continued, values first:

| melting point | Compound |
| --- | --- |
| 158 to 159 °C | Cc1oc(-c2ccccc2)nc1CCOc1ccc(C[C@@](C)(C(=O)O)n2ccc(Br)c2)cc1 (stereo in doubt) [Example 58, 2-(3-Bromo-pyrrol-1-yl)-2-methyl-3-{4-[2-(5-methyl-2-phenyl-oxazol-4-yl)-ethoxy]-phenyl}-propionic acid] |
| 110 to 112 °C | CC(=O)c1cccn1[C@@H](Cc1ccc(OCCc2nc(-c3ccccc3)oc2C)cc1)C(=O)O [Example 14, (S)-2-(2-Acetyl-pyrrol-1-yl)-3-{4-[2-(5-methyl-2-phenyl-oxazol-4-yl)-ethoxy]-phenyl}-propionic acid] |
| 124.1 to 125 °C | Cc1oc(-c2ccccc2)nc1CCOc1ccc(C[C@@H](C(=O)O)c2ccccc2)cc1 [Example 36, 3-{4-[2-(5-Methyl-2-phenyl-oxazol-4-yl)-ethoxy]-phenyl}-2-phenyl-propionic acid (R)] |
| 178 to 179 °C | Cc1oc(-c2ccccc2)nc1CCOc1ccc(CC(C)(C(=O)O)c2ccccc2)cc1 (stereo not drawn) [Example 39, 2-Methyl-3-{4-[2-(5-methyl-2-phenyl-oxazol-4-yl)-ethoxy]-phenyl}-2-phenyl-propionic acid] |
| 133 to 134 °C | Cc1oc(-c2ccccc2)nc1CCOc1ccc(CC(C)(C)C(=O)O)cc1 [Example 40, 2,2-Dimethyl-3-{4-[2-(5-methyl-2-phenyl-oxazol-4-yl)-ethoxy]-phenyl}-propionic acid] |
| 149.5 to 150.5 °C | Cc1oc(-c2ccccc2)nc1CCOc1ccc(C[C@@](C)(C(=O)O)n2cccc2)cc1 [Example 52] |
| 143 to 146 °C | CC(C(=O)O)n1ccc2c(OCc3ccccc3)cccc21 (stereo not drawn) [Example 60, 2-(4-Benzyloxy-indol-1-yl)-propionic acid] |
| 157 to 159 °C | Cc1oc(-c2ccccc2)nc1CCOc1cccc2c1ccn2C(C)C(=O)O (stereo not drawn) [Example 65, 2-(4-[2-(5-Methyl-2-phenyl-oxazol-4-yl)-ethoxy]-indol-1-yl)-propionic acid] |
| 165 to 166 °C | Cc1oc(-c2ccccc2)nc1CCOc1ccc(CC(C)(C(=O)O)c2cccs2)cc1 (stereo not drawn) [Example 73, 2-Methyl-3-{4-[2-(5-methyl-2-phenyl-oxazol-4-yl)-ethoxy]-phenyl}-2-thiophen-2-yl-propionic acid] |
| 165 to 166 °C | Cc1oc(-c2ccccc2)nc1CCOc1ccc(CC(C)(C(=O)O)c2ccsc2)cc1 (stereo not drawn) [Example 74, 2-Methyl-3-{4-[2-(5-methyl-2-phenyl-oxazol-4-yl)-ethoxy]-phenyl}-2-thiophen-3-yl-propionic acid] |
| 143 to 144 °C | Cc1oc(-c2ccccc2)nc1CCOc1cc(CC(C(=O)O)n2cccc2)on1 (stereo not drawn) [Example 77, 3-{3-[2-(5-Methyl-2-phenyl-oxazol-4-yl)-ethoxy]-isoxazol-5-yl}-2-pyrrol-1-yl-propionic acid] |

tested on: Ob/Ob diabetic mouse model; experiment: In vivo glucose lowering, Ob/Ob diabetic mouse model; conditions: 20 mg/kg

| Compound | In vivo Δ Glucose@ 20 mg/kg |
| --- | --- |
| Cc1oc(-c2ccccc2)nc1CCCc1ccc(CC(C(=O)O)n2cncn2)cc1 (stereo not drawn) [Example 0336683] | −53 |

same assay, conditions: glucose effect relative to rosiglitazone

| Compound | In vivo % Rosiglitazone |
| --- | --- |
| Cc1oc(-c2ccccc2)nc1CCCc1ccc(CC(C(=O)O)n2cccn2)cc1 (racemic) [Example 0339165, 3-{4-[3-(5-Methyl-2-phenyl-oxazol-4-yl)-propyl]-phenyl}-2-pyrazol-1-yl-propionic acid] | 102.49% |
| Cc1oc(-c2ccccc2)nc1CCCc1ccc(CC(C(=O)O)n2cncn2)cc1 (stereo not drawn) [Example 0336683] | 24.38% |
